The text below walks through data of patent EP1803452A1, “ESTER DERIVATIVE AND PHARMACEUTICAL USE THEREOF” (Japan Tobacco, Inc., priority 2004, dated 2006).

Data set [1] in a line: Metabolic stability test in liver S9. It is filed as in vitro ADME. The note with it: pH 7.4, human liver S9 2 mg protein/mL, LC/MS; for remaining at 10 min: unchanged form after 10 minutes at 37°C, read-out: Remaining rate in human liver S9 (%/10min); for remaining at 1 h: unchanged form after 60 minutes at 37°C, read-out: Remaining rate in human liver S9 (%/60min). As for the experimental part:
Human liver S9 (final concentration: 2 mg protein/mL), was suspended in 100 mM potassium phosphate buffer (pH 7.4, containing β-nicotinamide adenine dinucleotide phosphate: 1.3 mM, D-glucose-6- phosphate: 3.3 mM, magnesium chloride: 3.3 mM, glucose-6-phosphate dehydrogenase:0.4 U/mL). The suspension was mixed with a solution of a sample dissolved in DMSO. The solution was incubated at 37°C for 0, 10 and 60 minutes, and an acetonitrile containing formic acid (final concentration: 0.1%) was added thereto. The solutions were centrifuged, and the concentration of the sample (unchanged form) in the supernatant was determined by high performance liquid chromatography/mass spectrometry (LC/MS). Based on the data obtained, remaining rate (%) was calculated according to the following equation. Remaining rate(%) = amount of sample 0,10, or 60 minutes after [formula] incubation/amount of sample at zero time after incubation × 100 [formula]
(§1) With respect to the compounds obtained in Working Examples according to the present invention (Compounds 1-1 to 1-115, 2-1, 3-1, 3-2, and 4-1 to 4-4), the results of the remaining rate in human liver S9 and plasma are shown in Tables 28 to 32.

Data set [2] in a line: Metabolic stability test in plasma. It is filed as in vitro ADME, human. The note with it: LC/MS; for remaining at 10 min: unchanged form after 10 minutes at 37°C in human plasma, read-out: Remaining rate in human plasma (%/10min); for remaining at 1 h: unchanged form after 60 minutes at 37°C in human plasma, read-out: Remaining rate in human plasma (%/60min). As to the method: A sample dissolved in DMSO was added to plasma of human or animal species (mouse and hamster). The solutions were incubated at 37°C for 0, 10 and 60 minutes, and acetonitrile containing formic acid (final concentration: 0.1%) was added thereto. The solutions were centrifuged, and the concentration of the sample (unchanged form) in the supernatant was determined by high performance liquid chromatography/mass spectrometry (LC/MS). Based on the data obtained, the remaining rate (%) was calculated according to the following equation. Remaining rate(%) = amount of sample 0,10, or 60 minutes after incubation/amount of sample at zero time after incubation × 100 [formula]
as §1

Data set [3] in a line: Stability test in buffer (pH 7.4). The note with it: phosphate buffer/acetonitrile 7:3, 100 mM potassium phosphate buffer (pH 7.4) and acetonitrile 7:3 (v/v), LC/MS; for remaining at 10 min: 10 minutes at 37°C, read-out: Buf. remaining rate (%/10min); for remaining at 1 h: 60 minutes at 37°C, read-out: Buf. remaining rate (%/60min). It is filed as physicochemical. As to the method: In the tables, Buf. remaining rate was determined by stability test in buffer (pH 7.4) as described below. A sample dissolved in DMSO was mixed with a mixed solution of 100 mM potassium phosphate buffer and acetonitrile in the ratio of 7:3 (v/v). The mixture was incubated at 37°C for 0, 10, and 60 minutes, and acetonitrile containing formic acid (final concentration: 0.1%) was added thereto. The solution was centrifuged, and the concentration of the sample (unchanged form) in the supernatant was determined by high performance liquid chromatography/mass spectrometry (LC/MS). Based on the data obtained, Buf. remaining rate (%) was calculated according to the following equation. Buf.remaining rate(%) = amount of sample 0,10, or 60 minutes after incubation/amount of sample at zero time after incubation × 100 [formula]

As for `COC(=O)c1ccc(OC(=O)CCCc2ccc(NC(=O)c3ccccc3-c3ccc(C(F)(F)F)cc3)c(C(=O)N(C)C)c2)cc1C(F)(F)F` [Compound 1-21, 4-(4-{3-dimethylcarbamoyl-4-[(4'-trifluoromethylbiphenyl-2-carbonyl)amino]phenyl}butyryloxy)-2-trifluoromethylbenzoic acid methyl ester], the remaining at 10 min in data set [1] amounted to 0%; in data set [2] it was 0%; in data set [3], 104%. The remaining at 1 h in data set [1] was found to be 0%; in data set [2], 0%; in data set [3] it was 103%.
On to `COC(=O)c1ccc(OC(=O)CCc2ccc(NC(=O)c3ccccc3-c3ccc(C(F)(F)F)cc3)c(C(=O)N(C)C)c2)cc1` [Compound 1-27, 4-(3-{3-dimethylcarbamoyl-4-[(4'-trifluoromethylbiphenyl-2-carbonyl)amino]phenyl}propionyloxy)benzoic acid methyl ester], for which the remaining at 10 min in data set [1] is 0%; in data set [2], 10%; in data set [3], 97%. The remaining at 1 h in data set [1] is 0%; in data set [2], 0%; in data set [3], 102%.
Regarding `Cc1ccc(C(=O)Nc2ccc(CCCC(=O)Oc3ccc(C(=O)OC(C)C)cc3)cc2C(=O)N(C)C)c(-c2ccc(C(F)(F)F)cc2)n1` [Compound 1-81, 4-[4-(3-dimethylcarbamoyl-4-{[6-methyl-2-(4-trifluoromethylphenyl)pyridine-3-carbonyl]amino}phenyl)butyryloxy]benzoic acid isopropyl ester], the figures for the remaining at 10 min in data set [1], in data set [2] and in data set [3] were 4%, 51% and 99%, respectively. For the same compound, the remaining at 1 h in data set [1] was determined as 1%; in data set [2], 2%; in data set [3] it was 97%.
Turning to `CN(C)C(=O)c1cc(CCCC(=O)Oc2ccc(-c3nnn(C)n3)cc2)ccc1NC(=O)c1ccccc1-c1ccc(C(F)(F)F)cc1` [Compound 1-95, 4-(3-dimethylcarbamoyl-4-{(4'-trifluoromethylbiphenyl-2-carbonyl)amino}phenyl)butyric acid 4-(2-methyl-2H-tetrazol-5-yl)phenyl ester], the remaining at 10 min amounted to 0% in data set [1], 82% in data set [2] and 103% in data set [3]. The remaining at 1 h in data set [1] is 0%; in data set [2], 29%; in data set [3] it was 102%.
`CCc1cc(C(=O)OC)cc(Cl)c1OC(=O)CCCc1ccc(NC(=O)c2ccc(C)nc2-c2ccc(C(F)(F)F)cc2)c(C(=O)N(C)C)c1` [Compound 1-73, 3-chloro-4-[4-(3-dimethylcarbamoyl-4-{[6-methyl-2-(4-trifluoromethylphenyl)pyridine-3-carbonyl]amino}phenyl)butyryloxy]-5-ethylbenzoic acid methyl ester]: the remaining at 10 min stood at 10% in data set [1], 78% in data set [2] and 101% in data set [3]. Further, the remaining at 1 h turned out to be 0% in data set [1], 19% in data set [2] and 101% in data set [3].
`COC(=O)c1cc(C)c(OC(=O)CCCc2ccc(NC(=O)c3ccc(C)nc3-c3ccc(C(F)(F)F)cc3)c(C(=O)N(C)C)c2)c(OC)c1` [Compound 1-46, 4-[4-(3-dimethylcarbamoyl-4-{[6-methyl-2-(4-trifluoromethylphenyl)pyridine-3-carbonyl]amino}phenyl)butyryloxy]-3-methoxy-5-methylbenzoic acid methyl ester]: the remaining at 10 min in data set [1] stood at 5%; in data set [2], 39%; in data set [3], 99%. Besides, the remaining at 1 h in data set [1] was 2%; in data set [2], 0%; in data set [3], 102%.
For the compound `COc1cc(C(=O)OC(C)C)cc(Cl)c1OC(=O)CCCc1ccc(NC(=O)c2ccc(C)nc2-c2ccc(C(F)(F)F)cc2)c(C(=O)N(C)C)c1` [Compound 1-37, 3-chloro-4-[4-(3-dimethylcarbamoyl-4-{[6-methyl-2-(4-trifluoromethylphenyl)pyridine-3-carbonyl]amino}phenyl)butyryloxy]-5-methoxybenzoic acid isopropyl ester], the remaining at 10 min came to 37% in data set [1], 0% in data set [2] and 99% in data set [3]. Besides, the remaining at 1 h worked out at 11% in data set [1], 0% in data set [2] and 99% in data set [3].
For the compound `CC(C)OCCOC(=O)c1ccc(OC(=O)CCCc2ccc(NC(=O)c3ccccc3-c3ccc(C(F)(F)F)cc3)c(C(=O)N(C)C)c2)cc1` [Compound 1-76, 4-[4-(3-dimethylcarbamoyl-4-{(4'-trifluoromethylbiphenyl-2-carbonyl)amino}phenyl)butyryloxy]benzoic acid 2-isopropoxyethyl ester], the results for the remaining at 10 min in data set [1], in data set [2] and in data set [3] were 5%, 50% and 99%, respectively. In addition, the remaining at 1 h in data set [1] was 2%; in data set [2] it was 1%; in data set [3], 100%.
In the case of `CCOC(=O)c1cc(Cl)c(OC(=O)CCCc2ccc(NC(=O)c3ccc(C)nc3-c3ccc(C(F)(F)F)cc3)c(C(=O)N(C)C)c2)c(OC)c1` [Compound 1-48, 3-chloro-4-[4-(3-dimethylcarbamoyl-4-{[6-methyl-2-(4-trifluoromethylphenyl)pyridine-3-carbonyl]amino}phenyl)butyryloxy]-5-methoxybenzoic acid ethyl ester], the remaining at 10 min in data set [1] worked out at 16%; in data set [2], 0%; in data set [3] it was 99%. The results for the remaining at 1 h in data set [1], in data set [2] and in data set [3] were 6%, 0% and 97%, respectively.
As for `CN(C)C(=O)c1cc(CC(=O)Oc2ccc(F)cc2)ccc1NC(=O)c1ccccc1-c1ccc(C(F)(F)F)cc1` [Compound 1-4, {3-dimethylcarbamoyl-4-[(4'-trifluoromethylbiphenyl-2-carbonyl)amino]phenyl}acetic acid 4-fluorophenyl ester], the remaining at 10 min is 0% in data set [1], 57% in data set [2] and 99% in data set [3]. For the same compound, the remaining at 1 h in data set [1] worked out at 0%; in data set [2], 5%; in data set [3], 95%.
`CCc1cc(C(=O)OC)cc(C(=O)OC)c1OC(=O)CCCc1ccc(NC(=O)c2ccc(C)nc2-c2ccc(C(F)(F)F)cc2)c(C(=O)N(C)C)c1` [Compound 1-51, 4-[4-(3-dimethylcarbamoyl-4-([6-methyl-2-(4-trifluoromethylphenyl)pyridine-3-carbonyl]amino}phenyl)butyryloxy]-5-ethylisophthalic acid dimethyl ester]: the remaining at 10 min in data set [1] was 8%; in data set [2], 23%; in data set [3], 98%. In addition, the remaining at 1 h in data set [1] worked out at 3%; in data set [2] it was 0%; in data set [3], 101%.
Regarding `CN(C)C(=O)c1cc(CC(=O)Oc2ccccc2)ccc1NC(=O)c1ccccc1-c1ccc(C(F)(F)F)cc1` [Compound 1-3, {3-dimethylcarbamoyl-4-[(4'-trifluoromethylbiphenyl-2-carbonyl)amino]phenyl}acetic acid phenyl ester], the remaining at 10 min in data set [1] amounted to 0%; in data set [2], 58%; in data set [3], 101%. The remaining at 1 h in data set [1] is 0%; in data set [2], 5%; in data set [3] it was 98%.
